Measured values published in US11458132B2, “Quinolin-2(1H)-one inhibitors of Late SV40 Factor” (TRUSTEES OF BOSTON UNIVERSITY, priority 2020, dated 2022).

Key:
[1] = system: Huh7 cells; experiment: Growth inhibition curves in Huh7 cells; format: cell-based; settings: Homo sapiens, Huh-7
[2] = Plasma protein binding (PPB), human; format: in vitro ADME
[3] = Plasma protein binding (PPB), mouse; format: in vitro ADME
[4] = target: T1, LSF and β-catenin (Homo sapiens, UniProt Q12800); experiment: Immunoprecipitation of β-catenin probed for LSF in CRC cells; format: cell-based; settings: 1 μM, 16 hours, HT-29 and HCT-116 cells
T1 construct: In both these cell lines, LSF co-immunoprecipitated with β-catenin; endogenous in cells; host or cells: HT-29 and HCT-116
T1 sequence (Q12800 1-502): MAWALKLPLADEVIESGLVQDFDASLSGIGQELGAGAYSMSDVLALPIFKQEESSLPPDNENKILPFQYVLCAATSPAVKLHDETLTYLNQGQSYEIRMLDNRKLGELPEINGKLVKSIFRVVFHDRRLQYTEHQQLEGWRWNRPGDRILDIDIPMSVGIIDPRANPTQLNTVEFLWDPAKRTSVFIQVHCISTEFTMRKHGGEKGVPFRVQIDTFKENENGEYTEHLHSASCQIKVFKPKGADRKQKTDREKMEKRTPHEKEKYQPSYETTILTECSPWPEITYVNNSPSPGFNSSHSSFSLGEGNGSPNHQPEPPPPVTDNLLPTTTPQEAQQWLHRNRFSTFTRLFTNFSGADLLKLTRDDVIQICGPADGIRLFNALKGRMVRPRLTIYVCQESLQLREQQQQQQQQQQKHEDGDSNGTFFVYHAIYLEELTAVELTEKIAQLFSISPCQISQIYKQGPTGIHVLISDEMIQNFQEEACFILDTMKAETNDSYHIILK
Description: Immunoprecipitation: The CRC cells were harvested. Proteins of interest were immunoprecipitated using the indicated antibodies at 1:100 concentration. The eluents were resolved by SDS polyacrylamide gel electrophoresis and probed with the indicated antibodies. All the antibodies for immunoblot and immunoprecipitation were acquired from Cell Signaling and were used at the recommended concentrations.

[5] = system: FH-B cells; experiment: Microtubule sedimentation assay; format: cell-based, human; settings: for microtubule stability and α-tubulin acetylation in the microtubule fraction: 4 μM FQI1 (15- and 30-minute pellets), 1 μM nocodazole or taxol 30 minutes
Method: (§1) Cell lysate preparation: For microtubule sedimentation assays, cells were treated as indicated in the figure legends, washed with PBS and incubated in 250 μl of microtubule sedimentation assay lysis buffer (100 mM PIPES pH 6.8, 2 M glycerol, 2 mM EGTA, 5 mM MgCl2, 0.1% Triton X-100) supplemented with 1 μM taxol, protease inhibitor cocktail (1:200, Abcam, ab201111) and phosphatase inhibitor cocktail (1:100, Abcam, ab201115) for 20 minutes at 37° C. Two hundred μl of scraped lysate was centrifuged at 21,000×g for 10 minutes at room temperature. Supernatants were saved as soluble fractions. Pellets were resuspended in 200 μl RIPA buffer (50 mM Tris HCl pH 8.0, 150 mM NaCl, 1% IGEPAL CA630, 0.05% deoxycholic acid) supplemented with 1.05% SDS, protease inhibitor cocktail (1:200) and phosphatase inhibitor cocktail (1:100) and incubated at 100° C. for 15 minutes. Pellet suspensions were centrifuged as before and supernatants were saved as pellet fractions.
(§2) Gel electrophoresis and immunoblotting: Microtubule sedimentation fractions and MLC2 analysis samples were separated by electrophoresis through tris-glycine and tricine polyacrylamide gels, respectively, which were transferred to PVDF membranes. Membranes with microtubule sedimentation fractions and MLC2 analysis samples were blocked in 5% milk in TBST and in 5% BSA in TBST, respectively. After overnight incubation with primary antibody at 4° C., the membranes were washed and incubated with secondary antibody for 1 hour at room temperature. Primary antibodies included anti-α-tubulin (1:2,000, Thermo Fisher Scientific, PA529444), anti-acetylated tubulin (1:1,000, Sigma-Aldrich, T7451), anti-phospho MYL9 (1:200, Thermo Fisher Scientific, PA517727), and anti-β-actin (1:5,000, Sigma-Aldrich, A1978). Secondary antibodies included Goat anti-Rabbit HRP (Thermo Fisher Scientific, 31460; 1:10,000 for anti-α-tubulin; 1:5,000 for anti-phospho MYL9), and Goat anti-Mouse HRP (Thermo Fisher Scientific, 62-6520; 1:5,000 for anti-acetylated tubulin; 1:10,000-1:20,000 for anti-β-actin). Membranes were placed into Pierce™ ECL Western Blotting Substrate (Thermo Fisher Scientific, 32106). Autoradiography film was exposed to each membrane for various times to ensure acquisition of non-saturated exposures. Band intensities were quantified from scanned films by densitometry using ImageJ.

[6] = system: RPE cells; experiment: Microtubule sedimentation assay; format: cell-based; settings: for microtubule stability and α-tubulin acetylation in the microtubule fraction: 4 μM FQI1 (15- and 30-minute pellets), 1 μM nocodazole or taxol 30 minutes
Method: as §1, §2

[7] = system: RPE cells; experiment: Wound healing assay; format: cell-based; settings: 4 μM FQI1 or 1 μM nocodazole, monitored 12 hours
Method: Wound healing analysis: Confluent RPE cells were synchronized by incubating with 2 mM thymidine for 18-20 hours. Two intersecting lines were drawn into the confluent cells using a pipette tip. A phase-contrast image was acquired of the intersection point (“0 h” time-point) on an Olympus IX50 inverted microscope, immediately followed by treatment with the respective inhibitor and 2 mM thymidine. Phase-contrast images of the intersection point were acquired every 2 hours for 12 hours, continuing incubation at 37° C. in 5% CO2 in-between time points. Using ImageJ, the distances between each pair of neighboring vertices of the intersection point at each time-point were measured and normalized to the “0 h” sample.
RPE-hTERT Flp-In cells, propagated in DME M:F12 media with 10% fetal bovine serum at 37° C. in a 5% CO2 humidified incubator, were grown to confluence in 6-well tissue culture plates. One day prior to performing the wound healing assay, the medium was exchanged to also include 2 mM thymidine, so that the cells would stop dividing.
A cross-shaped wound was scratched into each well, and the cells imaged by phase contrast microscopy using at 4× magnification using a Olympus IX50 Inverted microscope. Then the cell media was exchanged to include vehicle (DMSO at 0.01%), 50 nM FQI2-34, 100 nM FQI2-34, or 200 nM FQI2-34; 2 mM thymidine was maintained throughout, as well. Cells were imaged again at 2 h, 4h, 6h, and 8h, in order to measure the migration of the cells into the wound.
Each of the 4 lines across the vertices of the “X” were individually measured from each set of images using ImageJ. Relative distances of cell migration into the wound were obtained by subtracting each of the lengths for 2-8 hour timepoints from the length at the 0 hour timepoint for that line and that sample. The averages of the four changes in lengths per sample were then plotted over time for each concentration of FQI2-34, from […], using Prism software. Triplicate technical replicates were performed for each concentration.

[8] = system: FH-B cells; experiment: Cell spreading area / cell compaction by microscopy; format: cell-based, human; settings: 1 μM nocodazole, 30-60 minutes
Method: (§3) Cells were washed as before, treated with Phalloidin-iFluor 488 Reagent (abcam, ab176753) for 1 hour in 1-5% BSA in PBS, followed by Hoechst 33342 (Thermo Fisher Scientific, H3570) for 5 minutes. Mounting medium (Fisher Scientific, P10144) and cover slips were applied onto dried cells. Individually discernible cells were imaged on an Olympus Fluoview 10i. Using ImageJ, the phalloidin channel was thresholded and area and circularity values were measured and integrated into swarmplots using Python's seaborn library.
For time lapse microscopy, FH-B cells in high μ-dishes were incubated with CellBrite™ Steady Membrane stain (Biotium, 30108-T) for 30-40 minutes in the environmental chamber of a Nikon C2 Si microscope at 37° C. and 5% CO2. Treatments were added to the cells through a syringe to reach final concentrations of 4 μM FQI1 or 0.01% DMSO. Immediately thereafter, a time-lapse series was acquired by imaging every 30 seconds for 30 minutes at 20× magnification.

[9] = system: RPE cells; experiment: Cell spreading area and circularity by microscopy; format: cell-based; settings: 4 μM FQI1 or 1 μM nocodazole, 1 hour
Method: as §3

[10] = system: RhoA/ROCK pathway in FH-B cells; experiment: Phospho-MLC2 immunoblot (RhoA/ROCK pathway); format: cell-based, human; settings: 1 μM taxol 30 minutes, then 4 μM FQI1 10 minutes
Method: For analysis of phosphorylated MLC2, FH-B cells were treated as indicated in the figure legend, washed with PBS and incubated for 5 minutes in lysis buffer (50 mM Tris-HCl pH 8.0, 50 mM NaF, 5 mM MgCl2, 150 mM NaCl, 1% Triton X-100) supplemented with Tricine Sample Buffer (Bio-rad, 1610739), protease inhibitor cocktail (1:200), phosphatase inhibitor cocktail (1:100), and 1% ([…]. Lysates were incubated at 100° C. for 15 minutes and centrifuged at 21,000×g for 10 minutes prior to SDS-PAGE.
as §2, with “Secondary antibodies included Goat anti-Rabbit HRP (Thermo Fisher Scientific, 31460; 1:10,000 for anti-α-tubulin; 1:5,000 for anti-phospho MYL9), and Goat anti-Mouse HRP (Thermo Fisher Scientific, 62-6520; 1:5,000 for anti-acetylated tubulin; 1:10,000-1:20,000 for anti-β-actin). Membranes were placed into Pierce™ ECL Western Blotting Substrate (Thermo Fisher Scientific, 32106). Autoradiography film was exposed to each membrane for various times to ensure acquisition of non-saturated exposures.” left out

[11] = 10 μM Y-27632 30 minutes, then 4 μM FQI1 30 minutes

CCOc1cc(N(C)C)ccc1-c1cc(=O)[nH]c2cc3c(cc12)OCCO3 [FQI2-37, 9-(4-(dimethylamino)-2-ethoxyphenyl)-2,3-dihydro-[1,4]dioxino[2,3-g]quinolin-7(6H)-one]
GI50 [1]: 0.0142 µM | fraction unbound [2]: 0.08 | fraction unbound [3]: 0.06

CCCOc1cc(N(C)C)ccc1-c1cc(=O)[nH]c2cc3c(cc12)OCO3 [FQI2-134, 8-(4-(dimethylamino)-2-propoxyphenyl)-[1,3]dioxolo[4,5-g]quinolin-6(5H)-one]
GI50 [1]: 0.26 µM

CCCOc1cc(N(C)C)ccc1-c1cc(=O)[nH]c2cc3c(cc12)OCCO3 [FQI2-137, 9-(4-(dimethylamino)-2-propoxyphenyl)-2,3-dihydro-[1,4]dioxino[2,3-g]quinolin-7(6H)-one]
GI50 [1]: 0.071 µM

CC(C)COc1cc(N(C)C)ccc1-c1cc(=O)[nH]c2cc3c(cc12)OCO3 [FQI2-234, 8-(4-(dimethylamino)-2-isobutoxyphenyl)-[1,3]dioxolo[4,5-g]quinolin-6(5H)-one]
GI50 [1]: 0.63 µM

CC(C)COc1cc(N(C)C)ccc1-c1cc(=O)[nH]c2cc3c(cc12)OCCO3 [FQI2-237, 9-(4-(dimethylamino)-2-isobutoxyphenyl)-2,3-dihydro-[1,4]dioxino[2,3-g]quinolin-7(6H)-one]
GI50 [1]: 0.467 µM

CCOc1cc(Br)ccc1-c1cc(=O)[nH]c2cc3c(cc12)OCO3 [FQI2Br, 8-(4-bromo-2-ethoxyphenyl)-[1,3]dioxolo[4,5-g]quinolin-6(5H)-one]
GI50 [1]: 0.0204 µM

CCOc1cc(Cl)ccc1-c1cc(=O)[nH]c2cc3c(cc12)OCO3 [FQI2Cl, 8-(2-ethoxy-4-chlorophenyl)-[1,3]dioxolo[4,5-g]quinolin-6(5H)-one]
GI50 [1]: 0.0562 µM

CCOc1cc(C(F)(F)F)ccc1-c1cc(=O)[nH]c2cc3c(cc12)OCO3 [FQI2F3, 8-(2-ethoxy-4-(trifluoromethyl)phenyl)-[1,3]dioxolo[4,5-g]quinolin-6(5H)-one]
GI50 [1]: 0.0562 µM

CCOc1cc(F)ccc1-c1cc(=O)[nH]c2cc3c(cc12)OCO3 [FQI2F, 8-(2-ethoxy-4-fluorophenyl)-[1,3]dioxolo[4,5-g]quinolin-6(5H)-one]
GI50 [1]: 0.0562 µM

CCOc1ccccc1-c1cc(=O)[nH]c2cc3c(cc12)OCO3 [FQI2]
GI50 [1]: 0.141 µM

CCOc1cc(N(C)C)ccc1C1CC(=O)Nc2cc3c(cc21)OCO3 (stereo not shown) [FQI-34, 8-(4-(dimethylamino)-2-ethoxyphenyl)-7,8-dihydro-[1,3]dioxolo[4,5-g]quinolin-6(5H)-one]
interaction of LSF and β-catenin (co-immunoprecipitation) [4]: consistently reduced this interaction | fraction unbound [2]: 0.07 | fraction unbound [3]: 0.05

CCOc1cc(N(C)C)ccc1C1CC(=O)Nc2cc3c(cc21)OCCO3 (stereo not shown) [FQI-37, 9-(4-(dimethylamino)-2-ethoxyphenyl)-2,3,8,9-tetrahydro-[1,4]dioxino[2,3-g]quinolin-7(6H)-one]
interaction of LSF and β-catenin (co-immunoprecipitation) [4]: consistently reduced this interaction | fraction unbound [2]: 0.07 | fraction unbound [3]: 0.05

C[C@@H](N)[C@H]1CC[C@H](C(=O)Nc2ccncc2)CC1 [Y-27632]
FQI1-induced decline in stable microtubules after Y-27632 pre-exposure [5, 11]: quantitatively the same decline in stable microtubules as seen in control cells | FQI1-induced decline in stable microtubules after Y-27632 pre-exposure [6, 11]: quantitatively the same decline in stable microtubules as seen in control cells

COC(=O)Nc1nc2ccc(C(=O)c3cccs3)cc2[nH]1 [nocodazole, reference compound]
migration of cells into the wound [7]: hindered RPE cells from migrating into the wound | microtubule stability and α-tubulin acetylation in the microtubule fraction [5]: destabilizes and deacetylates microtubules | decrease in cell spreading area [8]: decrease in cell spreading area was phenocopied | circularity [9]: significantly more circular in shape | microtubule stability and α-tubulin acetylation in the microtubule fraction [6]: destabilizes and deacetylates microtubules

CC(=O)O[C@H]1C(=O)[C@@]2(C)[C@H]([C@H](OC(=O)c3ccccc3)[C@]3(O)C[C@H](OC(=O)[C@H](O)[C@@H](NC(=O)c4ccccc4)c4ccccc4)C(C)=C1C3(C)C)[C@]1(OC(C)=O)CO[C@@H]1C[C@@H]2O [taxol]
FQI1-induced increase in MLC2 phosphorylation after taxol preincubation [10]: abrogated | microtubule stability and α-tubulin acetylation in the microtubule fraction [5]: stabilizes and hyperacetylates microtubules | microtubule stability and α-tubulin acetylation in the microtubule fraction [6]: stabilizes and hyperacetylates microtubules
